Counter-ions that a name gives are not always drawn. Like-named read-outs stand apart in the source and are kept apart here.
Key:
S1P1 [1] = molecular target: T1, S1P1 (Homo sapiens, UniProt P21453); test: 35S-GTPγS binding on membranes from CHO cells expressing S1P1; format: biochemical; conditions: read-out: S1P1/GTPG EC50
Protocol: (§1) Membranes were prepared from CHO cells expressing S1P1 or S1P3 for use in ligand and […] binding studies. Cells were suspended in 50 mM TRIS, pH 7.4, 2 mM EDTA, 250 mM Sucrose (buffer A) and 1× Complete protease inhibitor cocktail (Roche), and disrupted at 4° C. by N2 decompression using a cell disruption bomb (Parr Instrument). Following centrifugation at 1000 RPM for 10 min at 4° C., the supernatant was diluted (2×) in buffer A and centrifuged again at 19000 RPM for 75 min at 4° C. The pellet was then suspended in 10 mM HEPES, pH 7.4, 1 mM EDTA, 250 mM Sucrose (Buffer B), and 1× Complete EDTA-free protease inhibitor cocktail and homogenized using a potter. Membranes were flash frozen in liquid N2 and stored at −80° C.
Membranes (1 to 10 μg protein) prepared as described above, were incubated in 96-well Scintiplates (PerkinElmer) with test compounds diluted in DMSO, in 140 μl of 20 mM HEPES, pH 7.4, 10 mM MgCl2, 2 μg/well Saponin, 0.2% fatty acid free BSA (Assay buffer), 125 mM NaCl and 1.5 μM GDP. […] Supernatant was discarded and membrane bound radioactivity was measured on a PerkinElmer 1450 MicroBeta counter. Triplicate samples were averaged and expressed as % response relative to S1P activation in absence of compound (n=2).
The “potency” or the “activity” of the compounds is determined by the EC50 values as evaluated in the above described 35S-GTPγS binding assay.
Target sequence in this assay (P21453 whole entry, species assumed): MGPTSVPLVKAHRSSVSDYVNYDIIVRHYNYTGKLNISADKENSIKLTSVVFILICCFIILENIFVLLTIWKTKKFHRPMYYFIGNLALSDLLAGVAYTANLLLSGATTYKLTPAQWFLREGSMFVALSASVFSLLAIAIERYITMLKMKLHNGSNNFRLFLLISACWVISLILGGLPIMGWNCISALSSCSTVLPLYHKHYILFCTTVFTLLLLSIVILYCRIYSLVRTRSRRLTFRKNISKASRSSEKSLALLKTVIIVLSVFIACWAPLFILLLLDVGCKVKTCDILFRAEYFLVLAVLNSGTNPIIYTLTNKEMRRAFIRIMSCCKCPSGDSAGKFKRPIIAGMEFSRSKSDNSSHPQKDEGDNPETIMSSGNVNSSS

S1P1 [2] = molecular target: T1, S1P1; test: Receptor binding assay, [33P]sphingosine 1-phosphate competition (SPA), S1P1
Protocol: Cells were suspended in 50 mM TRIS, pH 7.4, 2 mM EDTA, 250 mM Sucrose (buffer A) and 1× Complete protease inhibitor cocktail (Roche), and disrupted at 4° C. by N2 decompression using a cell disruption bomb (Parr Instrument). […] The pellet was then suspended in 10 mM HEPES, pH 7.4, 1 mM EDTA, 250 mM Sucrose (Buffer B), and 1× Complete EDTA-free protease inhibitor cocktail and homogenized using a potter. Membranes were flash frozen in liquid N2 and stored at −80° C.
[33P]sphingosine 1-phosphate (3000 Ci/mmol; American Radiolabeled Chemicals, Inc.) was added to test compounds in 20% DMSO by competition. […] Triplicate samples were averaged and normalized as percentage of inhibition relative to total binding (only DMSO in well) and non-specific binding (1000-fold excess of unlabeled S1P). Binding data were analyzed using the GraphPad Prism program or Genedata software.
Target sequence in this assay (P21453 whole entry, species assumed): as above

S1P3 = S1P3 (Homo sapiens, UniProt Q99500); test: Receptor binding assay, [33P]sphingosine 1-phosphate competition (SPA), S1P3
Protocol: as §1
[33P]sphingosine 1-phosphate (3000 Ci/mmol; American Radiolabeled Chemicals, Inc.) was added to test compounds in 20% DMSO by competition. Membranes and WGA SPA beads (GE Healthcare) were added to give a final volume of 100 μl in 96-well plates or 50 μl in 384-well plates with assay concentrations of 30 pM or 15 pM [33P]sphingosine 1-phosphate (respectively for S1P1 or S1P3), 50 mM HEPES, pH 7.5, 5 mM MgCl2, 100 mM NaCl, 0.4% fatty acid-free BSA, 1-5 μg/well of proteins in 96-well plates vs 0.6-1 μg/well of proteins in 384-well plates and 100 μg/well of WGA SPA beads in 96-well plates vs 75 μg/well of WGA SPA beads in 384-well plates. Binding was performed for 60 min at RT on a shaker and bound radioactivity was measured on a PerkinElmer 1450 MicroBeta counter. Triplicate samples were averaged and normalized as percentage of inhibition relative to total binding (only DMSO in well) and non-specific binding (1000-fold excess of unlabeled S1P). Binding data were analyzed using the GraphPad Prism program or Genedata software.

S1P1 [3] = molecular target: T1, S1P1; test: S1P1 internalization assay in S1P1-U2OS cells (cell imaging); format: cell-based; conditions: U2OS cells expressing S1P1-EGFP, 1 hour
Protocol: Cellular functional assays: Internalization of Sphingosine-1-phosphate receptor 1 (S1P1) in a human Cell line (U2OS) in a 384-well format using a Cell Imaging analysis.
The S1P1 internalization assay was performed in 384 well plates (Corning® 384 black with clear bottom 3712) using S1P1-U2OS cells from Biolmage (C039A), a human epithelial cell line (Human Bone Osteosarcoma Epithelial Cells). These cells expressed the human S1P1 Receptor fused to the green fluorescent protein (EGFP). A standard CMV promoter (cytomegalovirus promoter) controls the expression of S1P1-EGFP and continuous expression was maintained by addition of geneticin to the culture medium.
S1P1Receptor desensitization induced the internalization of the membrane-localized S1P1-EGFP fusion protein to endosomes, which can be monitored by cell imaging analysis. The cells are plated in low serum medium (Dulbecco's Modified Eagle Medium (DMEM) with Glutamax-1 and high glucose, 1% Penicillin/Streptomycin, 1% Fetal Calf Serum (FCS), 0.5 mg/ml Geneticin) overnight.
The next day, S1P1-U2OS cells are incubated in 20 μl serum free medium (DMEM with Glutamax-1 and high glucose, 0.1% of fatty-acid free Bovin Serum Albumin (BSA), 10 mM, N′-2-Hydroxyethylpiperazine-N′-2 ethanesulphonic acid (HEPES) 1M) for 2 hours at 37° C./5% CO2. The cells are then treated with 4 μl compounds/agonists (6×/3% DMSO) for a total volume of 24 μl, and plates are incubated for 1 hour at 37° C./5% CO2.
S1P1-U2OS cells are fixed with 25 μl Paraformaldehyde 8% and stained with Hoechst 33345 dye (1:1000) for 20 minutes.
They were then washed 3 times with Phosphate Buffered Saline (PBS) and plates are sealed. The internalization of the receptor S1P1-EGFP is measured on Cellomics by calculating the “spot count per object” (“object” corresponds to nuclear and “spot” corresponds to S1P1-EGFP receptor). Internalization data were observed thanks to vHCS View and analyzed using Genedata® software.
Target sequence in this assay (P21453 whole entry): as the sequence (P21453 whole entry, species assumed) above

lymphocytes = test: Model of S1P agonists-induced lymphopenia in mice; format: in vivo; conditions: oral route
Protocol: (§2) Female C57BL/6 mice (Elevage Janvier) (8 week old) receive S1P agonists by oral route. Blood is sampled in heparinized (100 IU/kg, ip) mice by intracardiac or retroorbital puncture under isoflurane anesthesia 2 to 120 hrs after drug treatment. The white blood cells (lymphocytes and neutrophils) are counted using a Beckman/Coulter counter. The quality of blood sampling is assessed by counting erythocytes and platelets.

[4] = Pharmacokinetics (PK parameters from lymphopenia, mouse); format: in vivo; conditions: PK-PD (30 mpk)
Protocol: as §2
The pharmacoinetic properties of compound of example 70, N-(2-fluoro-4-{5-[2′-methyl-2-(trifluoromethyl)biphenyl-4-yl]-1,2,4-oxadiazol-3-yl}benzyl)-N-methylglycine, are the following: […]

[5] = 96 well-plate, read-out: S1P1 binding Ki (M) (96 well-plate)
[6] = 384 well-plate, read-out: S1P1 binding Ki (M) (384 well-plate)
[7] = 96 well-plate, read-out: S1P3 binding Ki (M) (96 well-plate)
[8] = 384 well-plate, read-out: S1P3 binding Ki (M) (384 well-plate)
[9] = female, C57BL/6, plasma, po, 30 mg/kg

Sequence of S1P3 (Q99500 whole entry, species assumed): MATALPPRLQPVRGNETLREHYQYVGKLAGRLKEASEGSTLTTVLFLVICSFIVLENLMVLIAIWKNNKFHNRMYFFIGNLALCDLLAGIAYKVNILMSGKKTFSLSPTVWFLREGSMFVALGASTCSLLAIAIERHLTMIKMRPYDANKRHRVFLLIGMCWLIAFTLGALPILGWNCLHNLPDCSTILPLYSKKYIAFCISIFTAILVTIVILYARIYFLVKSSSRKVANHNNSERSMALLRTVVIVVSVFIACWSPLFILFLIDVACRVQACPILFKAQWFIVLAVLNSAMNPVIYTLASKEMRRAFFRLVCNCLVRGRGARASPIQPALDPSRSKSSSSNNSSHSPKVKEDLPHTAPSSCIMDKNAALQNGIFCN

melting point [°C]	Ki (S1P1 [2]; [6]) [M]	Ki (S1P3; [7]) [M]	Ki (S1P3; [8]) [M]	EC50 (S1P1 [3]) [nM]	Compound	also measured
–	1.93e-09	2.36e-07	1.68e-07	8.75	Cc1ccccc1-c1ccc(-c2nc(-c3cccc(CN(C)CC(=O)O)c3)no2)cc1C(F)(F)F [Example 14, N-methyl-N-(3-{5-[2′-methyl-2-(trifluoromethyl)biphenyl-4-yl]-1,2,4-oxadiazol-3-yl}benzyl)glycine]	EC50 (S1P1 [1]): 1.24 nM; Ki (S1P1 [2]; [5]): 4.47e-10 M
–	2.19e-09	4.43e-07	4.11e-07	13	Cc1ccccc1-c1ccc(-c2nc(-c3ccc(CN(C)CC(=O)O)c(F)c3)no2)cc1C(F)(F)F [Example 70, N-(2-fluoro-4-{5-[2′-methyl-2-(trifluoromethyl)biphenyl-4-yl]-1,2,4-oxadiazol-3-yl}benzyl)-N-methylglycine]	Ki (S1P1 [2]; [5]): 6.81e-10 M; % of lymphopenia in mouse at 48 h (lymphocytes): 72 +/− 8%; Lymphe node/plasma ratio: 24 h ([4]; 24 h): 4.4; Lymphe node/plasma ratio: 48 h ([4]; 48 h): 4.0; Kp ([4]; female, C57BL/6, brain, oral, 30 mg/kg, ratio of AUCZ, read-out: Brain/plasma ratio: AUCZ (h * ng/ml)): 2.4; AUC(0-inf) [4, 9]: 104 µg·h/mL; CL/F [4, 9]: 5 mL/min/kg; Cmax [4, 9]: 8780 ng/mL; Tmax [4, 9]: 2 h; half-life [4, 9]: 7.5 h
207	–	–	–	–	COCc1cc(-c2nc(-c3cccc(CN(C)CC(=O)O)c3)no2)ccc1-c1ccccc1C(F)(F)F (as salt: hydrochloride) [Example 49, N-(3-{5-[2-(methoxymethyl)-2′-(trifluoromethyl)biphenyl-4-yl]-1,2,4-oxadiazol-3-yl}benzyl)-N-methylglycine]	–
210	–	–	–	–	CCOc1cc(-c2nc(-c3ccc(CN(C)CC(=O)O)cc3)no2)ccc1-c1ccccc1C(F)(F)F (as salt: hydrochloride) [Example 115, N-(4-{5-[2-ethoxy-2′-(trifluoromethyl)biphenyl-4-yl]-1,2,4-oxadiazol-3-yl}benzyl)-N-methylglycine]	–
–	2.08e-09	1.57e-06	2.22e-06	12	COCc1cc(-c2nc(-c3ccc(CN(C)CC(=O)O)cc3)no2)ccc1-c1ccccc1C(F)(F)F [Example 97, N-(4-{5-[2-(methoxymethyl)-2′-(trifluoromethyl)biphenyl-4-yl]-1,2,4-oxadiazol-3-yl}benzyl)-N-methylglycine]	–

Second part, the molecule before the results:

Compound	melting point [°C]	Ki (S1P1 [2]; [6]) [M]	Ki (S1P3; [7]) [M]	Ki (S1P3; [8]) [M]	EC50 (S1P1 [3]) [nM]	also measured
Cc1cc(-c2nc(-c3cc(F)cc(CN(C)CC(=O)O)c3)no2)ccc1-c1ccccc1C(F)(F)F (as salt: hydrochloride) [Example 104, N-(3-fluoro-5-{5-[2-methyl-2′-(trifluoromethyl)biphenyl-4-yl]-1,2,4-oxadiazol-3-yl}benzyl)-N-methylglycine]	207	–	–	–	–	–
CN(CC(=O)O)Cc1cc(F)cc(-c2noc(-c3ccc(-c4ccccc4C(F)(F)F)c(Cl)c3)n2)c1 (as salt: hydrochloride) [Example 136, N-(3-{5-[2-chloro-2′-(trifluoromethyl)biphenyl-4-yl]-1,2,4-oxadiazol-3-yl}-5-fluorobenzyl)-N-methylglycine]	212	–	–	–	–	–
Cc1ccccc1-c1ccc(-c2nc(-c3ccc(CN(C)CC(=O)O)c(F)c3)no2)cc1C(F)(F)F (as salt: hydrochloride) [Example 70, N-(2-fluoro-4-{5-[2′-methyl-2-(trifluoromethyl)biphenyl-4-yl]-1,2,4-oxadiazol-3-yl}benzyl)-N-methylglycine]	183	–	–	–	–	–
Cc1ccccc1-c1ccc(-c2nc(-c3cccc(CN(C)CC(=O)O)c3F)no2)cc1C(F)(F)F [Example 112, N-(2-fluoro-3-{5-[2′-methyl-2-(trifluoromethyl)biphenyl-4-yl]-1,2,4-oxadiazol-3-yl}benzyl)-N-methylglycine]	–	4.95e-10	1.49e-07	1.92e-07	6.26	–
